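48-hour exposure; five concentrations; linearly interpolated endpoints. TGI: concentration producing complete growth inhibition.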
Assays:
Test in all cases: NCI anticancer screen, dose series, 48 h
DU-145 prostate = system: DU-145 prostate
NCI-H23 lung = system: NCI-H23 lung
A498 renal = system: A498 renal
UACC-257 melanoma = system: UACC-257 melanoma
HOP-62 NSCLC = system: HOP-62 NSCLC
COLO 205 colon = system: COLO 205 colon
LOX IMVI melanoma = system: LOX IMVI melanoma
SK-MEL-28 melanoma = system: SK-MEL-28 melanoma
K-562 leukemia = system: K-562 leukemia
ACHN renal = system: ACHN renal
SNB-75 CNS = system: SNB-75 CNS
HT29 colon = system: HT29 colon
IGROV1 ovarian = system: IGROV1 ovarian
U251 CNS = system: U251 CNS
T-47D breast = system: T-47D breast
RPMI-8226 leukemia = system: RPMI-8226 leukemia
OVCAR-8 ovarian = system: OVCAR-8 ovarian
HOP-92 NSCLC = system: HOP-92 NSCLC
SR leukemia = system: SR leukemia
SW-620 colon = system: SW-620 colon
SN12C renal = system: SN12C renal
NCI-H460 lung = system: NCI-H460 lung
KM12 colon = system: KM12 colon
OVCAR-3 ovarian = system: OVCAR-3 ovarian
MOLT-4 leukemia = system: MOLT-4 leukemia
SF-295 CNS = system: SF-295 CNS
MALME-3M melanoma = system: MALME-3M melanoma
HCC-2998 colon = system: HCC-2998 colon
786-0 renal = system: 786-0 renal
SK-OV-3 ovarian = system: SK-OV-3 ovarian
MCF7 breast = system: MCF7 breast
SF-539 CNS = system: SF-539 CNS
HCT-15 colon = system: HCT-15 colon
SNB-19 CNS = system: SNB-19 CNS
EKVX NSCLC = system: EKVX NSCLC
SK-MEL-2 melanoma = system: SK-MEL-2 melanoma
TK-10 renal = system: TK-10 renal
SF-268 CNS = system: SF-268 CNS
BT-549 breast = system: BT-549 breast
NCI-H522 lung = system: NCI-H522 lung
PC-3 prostate = system: PC-3 prostate
HCT-116 colon = system: HCT-116 colon
CCRF-CEM leukemia = system: CCRF-CEM leukemia
OVCAR-4 ovarian = system: OVCAR-4 ovarian
SK-MEL-5 melanoma = system: SK-MEL-5 melanoma
RXF 393 renal = system: RXF 393 renal
A549 NSCLC = system: A549 NSCLC
HL-60(TB) leukemia = system: HL-60(TB) leukemia
OVCAR-5 ovarian = system: OVCAR-5 ovarian
M14 melanoma = system: M14 melanoma
NCI/ADR-RES ovarian = system: NCI/ADR-RES ovarian
MDA-N = system: MDA-N
CAKI-1 renal = system: CAKI-1 renal
NCI-H226 lung = system: NCI-H226 lung
UO-31 renal = system: UO-31 renal
MDA-MB-435 = system: MDA-MB-435
MDA-MB-231 breast = system: MDA-MB-231 breast
UACC-62 melanoma = system: UACC-62 melanoma

Compound: Cc1cc(S(=O)(=O)Nc2nc(N)nc(N(C)C)n2)c(S)cc1Cl
- TGI (DU-145 prostate): > 10 µM
- TGI (NCI-H23 lung): > 10 µM
- TGI (A498 renal): > 10 µM
- TGI (UACC-257 melanoma): > 10 µM
- TGI (HOP-62 NSCLC): > 10 µM
- TGI (COLO 205 colon): > 10 µM
- TGI (LOX IMVI melanoma): > 10 µM
- TGI (SK-MEL-28 melanoma): > 10 µM
- TGI (K-562 leukemia): > 10 µM
- TGI (ACHN renal): > 10 µM
- TGI (SNB-75 CNS): > 10 µM
- TGI (HT29 colon): > 10 µM
- TGI (IGROV1 ovarian): > 10 µM
- TGI (U251 CNS): > 10 µM
- TGI (T-47D breast): > 10 µM
- TGI (RPMI-8226 leukemia): > 10 µM
- TGI (OVCAR-8 ovarian): > 10 µM
- TGI (HOP-92 NSCLC): > 10 µM
- TGI (SR leukemia): > 10 µM
- TGI (SW-620 colon): > 10 µM
- TGI (SN12C renal): > 10 µM
- TGI (NCI-H460 lung): > 10 µM
- TGI (KM12 colon): > 10 µM
- TGI (OVCAR-3 ovarian): > 10 µM
- TGI (MOLT-4 leukemia): > 10 µM
- TGI (SF-295 CNS): > 10 µM
- TGI (MALME-3M melanoma): > 10 µM
- TGI (HCC-2998 colon): > 10 µM
- TGI (786-0 renal): > 10 µM
- TGI (SK-OV-3 ovarian): > 10 µM
- TGI (MCF7 breast): > 10 µM
- TGI (SF-539 CNS): > 10 µM
- TGI (HCT-15 colon): > 10 µM
- TGI (SNB-19 CNS): > 10 µM
- TGI (EKVX NSCLC): > 10 µM
- TGI (SK-MEL-2 melanoma): > 10 µM
- TGI (TK-10 renal): > 10 µM
- TGI (SF-268 CNS): > 10 µM
- TGI (BT-549 breast): > 10 µM
- TGI (NCI-H522 lung): > 10 µM
- TGI (PC-3 prostate): > 10 µM
- TGI (HCT-116 colon): > 10 µM
- TGI (CCRF-CEM leukemia): > 10 µM
- TGI (OVCAR-4 ovarian): > 10 µM
- TGI (SK-MEL-5 melanoma): > 10 µM
- TGI (RXF 393 renal): > 10 µM
- TGI (A549 NSCLC): > 10 µM
- TGI (HL-60(TB) leukemia): > 10 µM
- TGI (OVCAR-5 ovarian): > 10 µM
- TGI (M14 melanoma): > 10 µM
- TGI (NCI/ADR-RES ovarian): > 10 µM
- TGI (MDA-N): > 10 µM
- TGI (CAKI-1 renal): > 10 µM
- TGI (NCI-H226 lung): > 10 µM
- TGI (UO-31 renal): > 10 µM

Compound: O=C(O)c1ccccc1SCc1cccc2c(=O)c3ccc(Cl)cc3oc12
- TGI (NCI-H23 lung): > 50 µM
- TGI (A498 renal): > 50 µM
- TGI (UACC-257 melanoma): > 50 µM
- TGI (HOP-62 NSCLC): 47.3 µM
- TGI (COLO 205 colon): > 50 µM
- TGI (LOX IMVI melanoma): > 50 µM
- TGI (SK-MEL-28 melanoma): > 50 µM
- TGI (K-562 leukemia): > 50 µM
- TGI (ACHN renal): > 50 µM
- TGI (SNB-75 CNS): > 50 µM
- TGI (HT29 colon): > 50 µM
- TGI (IGROV1 ovarian): > 50 µM
- TGI (MDA-MB-435): > 50 µM
- TGI (U251 CNS): > 50 µM
- TGI (T-47D breast): > 50 µM
- TGI (RPMI-8226 leukemia): > 50 µM
- TGI (OVCAR-8 ovarian): > 50 µM
- TGI (SR leukemia): > 50 µM
- TGI (SW-620 colon): > 50 µM
- TGI (SN12C renal): > 50 µM
- TGI (KM12 colon): > 50 µM
- TGI (OVCAR-3 ovarian): > 50 µM
- TGI (MOLT-4 leukemia): > 50 µM
- TGI (SF-295 CNS): > 50 µM
- TGI (MALME-3M melanoma): 44.9 µM
- TGI (HCC-2998 colon): > 50 µM
- TGI (786-0 renal): > 50 µM
- TGI (SK-OV-3 ovarian): > 50 µM
- TGI (MCF7 breast): > 50 µM
- TGI (SF-539 CNS): > 50 µM
- TGI (HCT-15 colon): > 50 µM
- TGI (MDA-MB-231 breast): > 50 µM
- TGI (EKVX NSCLC): > 50 µM
- TGI (SK-MEL-2 melanoma): > 50 µM
- TGI (TK-10 renal): > 50 µM
- TGI (BT-549 breast): > 50 µM
- TGI (NCI-H522 lung): > 50 µM
- TGI (PC-3 prostate): > 50 µM
- TGI (HCT-116 colon): > 50 µM
- TGI (CCRF-CEM leukemia): > 50 µM
- TGI (OVCAR-4 ovarian): > 50 µM
- TGI (SK-MEL-5 melanoma): > 50 µM
- TGI (UACC-62 melanoma): > 50 µM
- TGI (A549 NSCLC): > 50 µM
- TGI (HL-60(TB) leukemia): 27.7 µM
- TGI (OVCAR-5 ovarian): > 50 µM
- TGI (M14 melanoma): > 50 µM
- TGI (NCI/ADR-RES ovarian): > 50 µM
- TGI (MDA-N): > 50 µM
- TGI (CAKI-1 renal): > 50 µM
- TGI (NCI-H226 lung): > 50 µM
- TGI (UO-31 renal): > 50 µM

Compound: C=C(C)/C=C/C(O)[C@](C)(O)[C@H]1[C@H](O)C[C@@]2(C)[C@@H]3CCc4c(cc(OC5OC(CO)C(O)C(O)C5O)c(O)c4C)C3(C)C(=O)C[C@]12C (some centres not stated)
- TGI (DU-145 prostate): > 100 µM
- TGI (NCI-H23 lung): > 100 µM
- TGI (A498 renal): > 100 µM
- TGI (UACC-257 melanoma): > 100 µM
- TGI (HOP-62 NSCLC): > 100 µM
- TGI (COLO 205 colon): > 100 µM
- TGI (LOX IMVI melanoma): > 100 µM
- TGI (SK-MEL-28 melanoma): > 100 µM
- TGI (K-562 leukemia): > 100 µM
- TGI (ACHN renal): > 100 µM
- TGI (SNB-75 CNS): > 100 µM
- TGI (HT29 colon): > 100 µM
- TGI (IGROV1 ovarian): > 100 µM
- TGI (MDA-MB-435): > 100 µM
- TGI (U251 CNS): > 100 µM
- TGI (T-47D breast): > 100 µM
- TGI (OVCAR-8 ovarian): > 100 µM
- TGI (HOP-92 NSCLC): > 100 µM
- TGI (SR leukemia): > 100 µM
- TGI (SW-620 colon): > 100 µM
- TGI (SN12C renal): > 100 µM
- TGI (NCI-H460 lung): > 100 µM
- TGI (KM12 colon): > 100 µM
- TGI (OVCAR-3 ovarian): > 100 µM
- TGI (MOLT-4 leukemia): > 100 µM
- TGI (SF-295 CNS): > 100 µM
- TGI (MALME-3M melanoma): > 100 µM
- TGI (HCC-2998 colon): > 100 µM
- TGI (786-0 renal): > 100 µM
- TGI (SK-OV-3 ovarian): > 100 µM
- TGI (MCF7 breast): > 100 µM
- TGI (SF-539 CNS): > 100 µM
- TGI (HCT-15 colon): > 100 µM
- TGI (MDA-MB-231 breast): > 100 µM
- TGI (SNB-19 CNS): > 100 µM
- TGI (EKVX NSCLC): > 100 µM
- TGI (SK-MEL-2 melanoma): > 100 µM
- TGI (TK-10 renal): > 100 µM
- TGI (SF-268 CNS): > 100 µM
- TGI (NCI-H522 lung): > 100 µM
- TGI (PC-3 prostate): > 100 µM
- TGI (HCT-116 colon): > 100 µM
- TGI (CCRF-CEM leukemia): > 100 µM
- TGI (OVCAR-4 ovarian): > 100 µM
- TGI (SK-MEL-5 melanoma): > 100 µM
- TGI (UACC-62 melanoma): > 100 µM
- TGI (RXF 393 renal): > 100 µM
- TGI (A549 NSCLC): > 100 µM
- TGI (OVCAR-5 ovarian): > 100 µM
- TGI (M14 melanoma): > 100 µM
- TGI (NCI/ADR-RES ovarian): > 100 µM
- TGI (MDA-N): > 100 µM
- TGI (CAKI-1 renal): > 100 µM
- TGI (NCI-H226 lung): > 100 µM
- TGI (UO-31 renal): > 100 µM

— PubChem BioAssay (NCI)
